Results as given in PMC4043446 (Arteriosclerosis, thrombosis, and vascular biology, 2013).

Tested on: LPS-challenged mice
Experiment: LPS-induced mortality in mouse endotoxemia model
Type: in vivo, C57BL/6 mice
Details: 5 mg/kg retro-orbital prior to i.p. LPS; 10 mice/group; Kaplan-Meier

Integrilin
LPS-induced mortality (Integrilin): showed a trend in reducing
